# Measured values taken from US9867884B2, “Vascular delivery systems” (Ben-Gurion University of the Negev Research and Development …, priority 2008, dated 2018).
# pIC50: −log10 of the molar value. Like-named read-outs stand apart in the source and are kept apart here. Ends that are not written are not given here. * marks the point of attachment. Methacryloyl = C=C(C)C(=O)*
# How the values were obtained:
# E-selectin = biological target: T1, E-selectin (Homo sapiens, UniProt P16581); assay: Inhibition of HL-60 adhesion to recombinant soluble E-selectin coated plates (competitive inhibition assay); format: binding
# T1 sequence (P16581 22-556 limits assumed): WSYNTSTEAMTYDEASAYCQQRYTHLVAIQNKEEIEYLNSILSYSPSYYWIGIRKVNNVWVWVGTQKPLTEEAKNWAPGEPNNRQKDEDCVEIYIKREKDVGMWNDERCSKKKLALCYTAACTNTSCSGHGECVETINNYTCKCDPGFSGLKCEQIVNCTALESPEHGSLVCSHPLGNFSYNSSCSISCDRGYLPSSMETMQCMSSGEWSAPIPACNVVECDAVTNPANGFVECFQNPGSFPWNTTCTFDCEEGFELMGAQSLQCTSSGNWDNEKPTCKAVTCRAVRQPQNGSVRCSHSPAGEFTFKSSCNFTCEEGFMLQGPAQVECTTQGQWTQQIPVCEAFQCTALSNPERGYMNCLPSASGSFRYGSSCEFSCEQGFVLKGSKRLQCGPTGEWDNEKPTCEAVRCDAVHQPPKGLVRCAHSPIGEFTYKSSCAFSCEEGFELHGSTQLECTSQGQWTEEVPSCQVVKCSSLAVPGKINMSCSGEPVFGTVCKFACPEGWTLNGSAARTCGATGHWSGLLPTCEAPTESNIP
# Protocol: The percentage of bound HL-60 cells is determined with o-phenylenediamine as a substrate for myeloperoxidases released from lysed cells. […] FIG. 3B depicts binding in the presence of P-Glu-Gly-QA, PAAsLe^x and pHPMA polymers; FIG. 3C depicts binding of P-Glu-Gly-QA and P-Gly-Gly-Lys(Glu)-QA conjugates.
# Affinity of Esbp and P-Esbp to E-selectin was evaluated by a competitive inhibition assay of HL-60 to immobilized E-selectin. […] FIG. 7B the results of an inhibition assay with P-Esbp and P-GG-OH, under the same procedure as in FIG. 7A. In this figure diamonds are P-Esbp and squares are P-GG-OH.
# The percentage of bound HL-60 cells is determined with o-phenylenediamine as a substrate for myeloperoxidases released from lysed cells. All assays is performed in duplicates.
# [1] = test system: E-selectin expressing cells (human IVECs); assay: Confocal microscopy of uptake and lysosomal colocalization of FITC-labeled copolymer conjugates in IVECs; format: cell-based; details: Example 17, activated and non-activated human IVECs (FIG. 14)
# Protocol: Internalization of P-sLe^x-FITC and P-QA-FITC conjugates by endothelial cells was studied using confocal laser scanning microscopy (CLSM). Human IVECs grown on cover glass, and treated with the polymer conjugate, and probed for localization of the polymer within lysosomal vessicles. After 24 hours incubation, cells are washed with cold phosphate-buffered saline (PBS) and fixed with 4% PFA. The cells on the cover glass are mounted in antibleach reagent on slides, examined using a CLSM, and analyzed.
# Confocal microscopy was used to evaluate the subcellular fate of the FITC labeled copolymer conjugates by human immortalized vascular endothelial cells, IVECs. Lysotracker Red DND-99 (Molecular Probes, Leiden, The Netherlands) was selected to visualize lysosomes. Cells ([…]) were seeded onto gelatin coated cover slips in 24 wells plate with 500 μL endothelial cells culture medium (Promocell) and incubated for 24 hr. […] Quantitative analysis was performed using Image-Pro Plus 4.0 (Media Cybernetics, Silver Spring, Md.). Fluorescence intensities were expressed in arbitrary units per square micron. […]
# Confocal microscopy was used to evaluate the uptake of P-Esbp. […] After removal of medium cells were incubated with 0.5 ml medium with 50 μg/ml of FITC labeled P-Esbp solution for 6 or 24 hours and subjected to fluorescence microscopy. […]
# [2] = test system: E-selectin expressing cells (IVECs); assay: Flow cytometry of binding and uptake of FITC-labeled conjugates by IVECs; format: cell-based, human; details: 1 h at 4° C., E-selectin expressing cells (FIG. 12)
# Protocol: FIG. 11A-F depicts the results of flow cytometry assays of IVECs incubated with P-Esbp at different temperatures. FIGS. 11(A)-(D) depict results of IVECs incubated 4° C. for 1 hour, while FIGS. 11(E)-(F) depict results of IVECs incubated 37° C. for 15 hr in activated (F) and non-activated (E) cells. FIGS. 11A and 11B show results of incubation with P-Esbp at a concentration of 10 and 50 μg/ml, respectively in TNF-α activated cells, versus 11C and D, which show the results of non-activated cells incubated with the same concentration of P-Ebsp, respectively. Fluorescence, size and number of cells were all measured with GUAVA Tech-Mini Easycyte at 520 nm. Statistical analysis of the results was performed with Cytosoft software (GUAVA Tech). Gates for size and fluorescence were set according to the control experiment with P-GG-OH incubated with non activated IVEC cells.
# At 37° C. […]
# E-selectin expressing cells were treated with P-Esbp and P-Scrmb as described in previous examples, to determine binding, in activated and non-activated cells (FIG. 12). Cells were treated with P-Esbp and P-Scrmb conjugates for 1 h at 4° C. and evaluated for binding. […] Binding of P-Esbp and scrambled Esbp peptide sequence polymer conjugates (P-Scrmb) to E-selectin expressing cells was similarly evaluated, when cells were also contacted with or without free peptides (FIG. 13). […]
# leukocyte adhesion = details: have been shown (prior report); read-out: IC50 of inhibition of leukocyte adhesion; cited from earlier work
substance,measurement,setting,value
N-methacryloyl-aminopropyl-Glutamyl-Glycyl-quinic acid [MAP-Glu-Gly-QA],pIC50,"E-selectin; monomers, HL-60 adhesion to immobilized E-selectin, 15 min (FIG. 3A), read-out: Inhibition of 50% binding (IC50) value",2.00
"P-Scrmb: scrambled Esbp peptide sequence polymer conjugate, GKMIDWTWLQLDD (SEQ ID NO: 8) (Methacryloyl-GGGKMIDWTWLQLDD; also: polymer conjugate, FITC)",internalization and colocalization with lysosomal marker,[1],did not show reasonable internalization or colocalization
same,percentage of labeled cells,[2],6%
"DITWDQLWDLMK [Esbp, reference compound]",pIC50,"E-selectin; Esbp monomer, FIG. 7A, read-out: IC50",5.00
same,pIC50,leukocyte adhesion,8.40
